Source: ChEMBL document CHEMBL1201862, “PubChem BioAssay data set” (2004)
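Grown in 96-well plates, cells were treated for 48 hours with each compound at five concentrations. Insufficient inhibition: endpoint recorded as highest concentration tested. GI50 is the concentration that inhibits growth by half.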 Activity calls are given as the source filed them. Rule as the data show it: active = GI50 up to about 1.1 µM and inactive = higher.

What was measured:
Test in all cases: growth of human tumour cells (NCI), 48 h
[1] = system: OVCAR-5
[2] = system: HT-29
[3] = system: CCRF-CEM
[4] = system: IGROV-1
[5] = system: HCT-15
[6] = system: UO-31
[7] = system: SF-539
[8] = system: NCI-H522
[9] = system: SF-268
[10] = system: BT-549
[11] = system: RXF 393
[12] = system: UACC-62
[13] = system: DU-145
[14] = system: 786-0
[15] = system: SK-MEL-2
[16] = system: M14
[17] = system: COLO 205
[18] = system: SNB-75
[19] = system: MOLT-4
[20] = system: K562
[21] = system: Malme-3M
[22] = system: OVCAR-8
[23] = system: HL-60
[24] = system: NCI-H226
[25] = system: MDA-N
[26] = system: MDA-MB-435
[27] = system: T47D
[28] = system: SNB-19
[29] = system: SN12C
[30] = system: ACHN
[31] = system: SK-MEL-5
[32] = system: MCF7
[33] = system: SK-MEL-28
[34] = system: LOX IMVI
[35] = system: NCI/ADR-RES
[36] = system: HOP-92
[37] = system: PC-3
[38] = system: RPMI-8226
[39] = system: SR
[40] = system: CAKI-1
[41] = system: HCT-116
[42] = system: KM12
[43] = system: SW-620
[44] = system: NCI-H23
[45] = system: OVCAR-4
[46] = system: A498
[47] = system: OVCAR-3
[48] = system: EKVX
[49] = system: A549
[50] = system: SF-295
[51] = system: UACC-257
[52] = system: MDA-MB-231
[53] = system: NCI-H460
[54] = system: U-251
[55] = system: SK-OV-3
[56] = system: HCC 2998
[57] = system: TK-10
[58] = system: HOP-62

In the case of COc1cc(NC(C)=O)ccc1C(=O)NN1C(=O)C(Cl)C1c1ccco1 (stereo not drawn), the GI50 [1] was > 100 µM (inactive), the GI50 [2] was > 100 µM (inactive) and the GI50 [3] was 65.3 µM (inactive). For the same molecule, the GI50 [4] was 80.5 µM (inactive), the GI50 [5] was greater than 100 µM and the GI50 [6] was > 100 µM (inactive). For the same molecule, the GI50 [7] was > 100 µM (inactive), the GI50 [8] was > 100 µM (inactive) and the GI50 [9] was > 100 µM (inactive). For the same molecule, the GI50 [10] was > 100 µM (inactive), the GI50 [11] was > 100 µM (inactive) and the GI50 [12] was > 100 µM (inactive). For the same molecule, the GI50 [13] was > 100 µM (inactive), the GI50 [14] was > 100 µM (inactive) and the GI50 [15] was > 100 µM (inactive). The GI50 [16] was > 100 µM (inactive), the GI50 [17] was 61.8 µM (inactive) and the GI50 [18] was > 100 µM (inactive). The GI50 [19] was 31.9 µM (inactive), the GI50 [20] was > 100 µM (inactive) and the GI50 [21] was > 100 µM (inactive). The GI50 [22] was 87.3 µM (inactive), the GI50 [23] was 41.7 µM (inactive) and the GI50 [24] was 44.7 µM (inactive). For the same molecule, the GI50 [25] was > 100 µM (inactive), the GI50 [26] was > 100 µM (inactive) and the GI50 [27] was > 100 µM (inactive). For the same molecule, the GI50 [28] was > 100 µM (inactive), the GI50 [29] was > 100 µM (inactive) and the GI50 [30] was 86.3 µM (inactive). For the same molecule, the GI50 [31] was 76.4 µM (inactive), the GI50 [32] was 58.3 µM (inactive) and the GI50 [33] was > 100 µM (inactive). For the same molecule, the GI50 [34] was 75.2 µM (inactive), the GI50 [35] was > 100 µM (inactive) and the GI50 [36] was > 100 µM (inactive). For the same molecule, the GI50 [37] was > 100 µM (inactive), the GI50 [38] was > 100 µM (inactive) and the GI50 [39] was 36.6 µM (inactive). The GI50 [40] was 88.9 µM (inactive), the GI50 [41] was > 100 µM (inactive) and the GI50 [42] was > 100 µM (inactive). For the same molecule, the GI50 [43] was > 100 µM (inactive), the GI50 [44] was > 100 µM (inactive) and the GI50 [45] was > 100 µM (inactive). For the same molecule, the GI50 [46] was > 100 µM (inactive), the GI50 [47] was > 100 µM (inactive) and the GI50 [48] was > 100 µM (inactive). For the same molecule, the GI50 [49] was 92.5 µM (inactive).

In the case of CC(C)=CC(O)C(C(O)CCC1(C)OCCO1)S(=O)(=O)c1ccccc1 (stereo not drawn), the GI50 [1] was > 100 µM (inactive), the GI50 [3] was > 100 µM (inactive) and the GI50 [4] was > 100 µM (inactive). For the same molecule, the GI50 [5] was greater than 100 µM, the GI50 [6] was > 100 µM (inactive) and the GI50 [7] was > 100 µM (inactive). For the same molecule, the GI50 [8] was > 100 µM (inactive), the GI50 [9] was > 100 µM (inactive) and the GI50 [10] was > 100 µM (inactive). For the same molecule, the GI50 [50] was > 100 µM (inactive), the GI50 [11] was > 100 µM (inactive) and the GI50 [14] was > 100 µM (inactive). For the same molecule, the GI50 [51] was > 100 µM (inactive), the GI50 [15] was > 100 µM (inactive) and the GI50 [16] was > 100 µM (inactive). For the same molecule, the GI50 [17] was > 100 µM (inactive), the GI50 [18] was > 100 µM (inactive) and the GI50 [52] was > 100 µM (inactive). For the same molecule, the GI50 [53] was > 100 µM (inactive), the GI50 [54] was > 100 µM (inactive) and the GI50 [21] was > 100 µM (inactive). For the same molecule, the GI50 [22] was > 100 µM (inactive), the GI50 [55] was > 100 µM (inactive) and the GI50 [24] was > 100 µM (inactive). For the same molecule, the GI50 [25] was > 100 µM (inactive), the GI50 [26] was > 100 µM (inactive) and the GI50 [27] was > 100 µM (inactive). For the same molecule, the GI50 [28] was > 100 µM (inactive), the GI50 [29] was > 100 µM (inactive) and the GI50 [30] was > 100 µM (inactive). For the same molecule, the GI50 [56] was > 100 µM (inactive), the GI50 [32] was > 100 µM (inactive) and the GI50 [33] was > 100 µM (inactive). The GI50 [34] was > 100 µM (inactive), the GI50 [35] was > 100 µM (inactive) and the GI50 [37] was > 100 µM (inactive). The GI50 [38] was > 100 µM (inactive), the GI50 [40] was > 100 µM (inactive) and the GI50 [41] was > 100 µM (inactive). For the same molecule, the GI50 [42] was > 100 µM (inactive), the GI50 [43] was > 100 µM (inactive) and the GI50 [44] was > 100 µM (inactive). For the same molecule, the GI50 [45] was > 100 µM (inactive), the GI50 [57] was > 100 µM (inactive) and the GI50 [46] was > 100 µM (inactive). The GI50 [58] was > 100 µM (inactive), the GI50 [47] was > 100 µM (inactive) and the GI50 [48] was > 100 µM (inactive). The GI50 [49] was > 100 µM (inactive).
